Several values for one entry are separate records, joined by “and”; a condition that tells them apart may be missing. Equal values may be shown once. Marks after values point to notes of the source that are not given here.
Legend:
[1] = test system: disks of whole human skin; assay: Neosynthesis of the total epidermal lipids (14C-acetate incorporation) in organotypical model of whole human skin in culture; assay type: cell-based; settings: incubation 18 hours
Procedure: (§1) The study is performed in vitro in an organotypical model of whole human skin in culture. Two techniques successively used: • measurement of the incorporation of acetate radiolabeled with carbon 14 into the neosynthesized epidermal lipids in toto; • analysis by thin layer chromatography to separate the main classes of neosynthesized radiolabeled epidermal lipids.
(§2) A fragment of human skin was collected after an abdominal plastic surgery-operation. This was performed on a person (subject I0129). Skin disks 8 mm in diameter were cut out using a sample punch.
(§3) The skin disks are placed in gondolas. The gondolas are placed in culture wells containing MCF medium, composed of MEM/M199 medium (3/4, 1/4; v/v) supplemented with penicillin (50 IU/ml), streptomycin (50 μg/ml), sodium bicarbonate (0.2%, w/v) and FCS (2%, v/v).
(§4) The test products are tested undiluted. They are placed at the center of each human skin disk, in a proportion of 10 mg/cm^2. The incubation medium for the human skin disks (MIF medium) is composed of MCF medium containing 1 μCi/ml of acetate labeled with carbon 14 (Amersham, specific activity: 57 mCi/mmol).
(§5) The lactic acid is used in topical application (10 mg/cm^2).
(§6) The human skin disks are incubated in the presence of the test products and the reference products for 18 hours at 37° C. in a humid atmosphere containing 5% CO2.
(§7) Each experimental condition is performed in quadruplicate.
At the end of the incubation, the human skin disks are rinsed thoroughly with PBS buffer. The epidermis of each skin disk is dissociated from the dermis by means of a controlled heat shock (MilliQ water, 2 min, 62° C.) The epidermises thus dissociated are digested with trypsin (ICN, 1%, w/v) overnight at 37° C. The cell dissociation is facilitated by the action of ultrasound. […]
The radioactivity of each sample, corresponding to the amount of acetate incorporated into the neosynthesized lipids, is measured by liquid scintillation. […]

[2] = test system: disks of whole human skin; assay: Nature of the neosynthesized epidermal lipids (thin layer chromatography of 14C-labeled lipids) in whole human skin disks; assay type: cell-based; parameters: neosynthesis of cholesteryl sulfate, percentage of the control group: concentration or dose not given beside the values
Procedure: as §1, §2, §3, §4, §5, §6, §7
Starting with the samples of extracted lipids, 20 μl aliquots, corresponding to 3 700 cpm, are placed on silica 60 (Merck) chromatography plates. These plates are developed in three successive solvents: • 38/2/10 chloroform/acetone/methanol (v/v/v), • 40/5/5 chloroform/acetone/methanol (v/v/v), • 36/10/3/1 chloroform/ethyl acetate/ether/methanol (v/v/v/v).
This system makes it possible to separate the cholesteryl sulfate, the cerebrosides, the ceramides, the cholesterol and the tri-+diglycerides. The most polar lipids, referred to hereinbelow as “polar lipids”, remain on the base line.
The silica plates are then placed in exposure with films for autoradiography for 15 days (Amersham, Hyperfilm beta max).
The position of the various classes of lipids—polar lipids, cholesteryl sulfate, cerebrosides, ceramides 1 and 2, cholesterol and tri-+diglycerides—is determined using suitable standards.
The results are expressed as percentages of the radioactivity of the total lipids neosynthesized and deposited on the TLC.

[3] = percentage of the radiolabeled total lipids applied onto the TLC, mean of 4 disks, 18 hours
[4] = percentage of the radiolabeled total lipids applied onto the TLC, single disks, 18 hours

With “EGF: epidermal growth factor obtained from R&D Systems, reference product tested at 10 ng/ml” the “neosynthesis of the total epidermal lipids, percentage of the control group” value ([1]; topical 10 mg/cm2, EGF 10 ng/ml) was 122%, the “neosynthesis of the total epidermal lipids, mean” value ([1]; mean of 4 disks, topical 10 mg/cm2, EGF 10 ng/ml) was 4080.02 cpm/mg of epidermis and the “neosynthesis of the total epidermal lipids, individual skin disk” value ([1]; single disks of quadruplicate, compositions and lactic acid undiluted 10 mg/cm2 topical, EGF 10 ng/ml in medium) was 3104.63 cpm/mg of epidermis and 5043.66 cpm/mg of epidermis and 3606.76 cpm/mg of epidermis and 4565.02 cpm/mg of epidermis. For the same substance, the “neosynthesis of ceramide 1, percentage of the control group” value ([2]; 18 hours) was 120%, the “neosynthesis of ceramide 2, percentage of the control group” value ([2]; 18 hours) was 155% and the “neosynthesis of cerebrosides, percentage of the control group” value ([2]; 18 hours) was 125%. For the same substance, the “neosynthesis of cholesterol, percentage of the control group” value ([2]; 18 hours) was 128%, the “neosynthesis of cholesteryl sulfate, percentage of the control group” value ([2]; 18 hours) was 54% and the “neosynthesis of polar lipids, percentage of the control group” value ([2]; 18 hours) was 119%. The “neosynthesis of ceramide 1, mean” value [2, 3] was 2.72%, the “neosynthesis of ceramide 2, mean” value [2, 3] was 3.00* % and the “neosynthesis of cerebrosides, mean” value [2, 3] was 3.87%. For the same substance, the “neosynthesis of cholesteryl sulfate, mean” value [2, 3] was 3.00* %, the “neosynthesis of polar lipids, mean” value [2, 3] was 38.23% and the “neosynthesis of tri- + diglycerides, mean” value [2, 3] was 45.10%. The “neosynthesis of ceramide 1, individual skin disk” value [2, 4] was 2.02% and 1.41% and 3.41% and 4.02%, the “neosynthesis of ceramide 2, individual skin disk” value [2, 4] was 3.81% and 2.38% and 2.74% and 3.05% and the “neosynthesis of cerebrosides, individual skin disk” value [2, 4] was 2.87% and 3.82% and 4.77% and 4.02%. For the same substance, the “neosynthesis of cholesterol, individual skin disk” value [2, 4] was 7.07% and 9.46% and 7.86% and 9.99%, the “neosynthesis of cholesteryl sulfate, individual skin disk” value [2, 4] was 2.31% and 3.69% and 3.44% and 2.57% and the “neosynthesis of polar lipids, individual skin disk” value [2, 4] was 57.27% and 34.42% and 27.69% and 33.53%. The “neosynthesis of tri- + diglycerides, individual skin disk” value [2, 4] was 42.67% and 44.82% and 50.08% and 42.83%, the “increase of the neosynthesis of ceramide 2” value ([2]; versus control) was 55% and the “reduction of the neosynthesis of cholesteryl sulfate” value ([2]; versus control) was 46%.
